Data from patent publication US20040009973A1, “Novel potassium channels modulators” (4SC AG, priority 2002, published 2004).

Target: T1, BK potassium channel, cloned hSlo (α-hSlo and β-bSlo) in CHO cells (Homo sapiens, UniProt Q12791)
T1 construct: expressed in transfected cells; host or cells: CHO cells, permanently transfected
Test: Em-Assay: membrane potential with voltage sensitive dye DiBAC(4)3, fluorescence plate reader
Format: cell-based
Settings: compound 50 μM; NS004 25 or 50 μM; hSlo transfected CHO cells; change in DiBAC(4)3 fluorescence intensity
From the text: The large conductance, voltage-dependent and Ca^2+-activated potassium channel BK is a potassium selective ion channel and belongs to the subfamily of KCa channels. Four BK alpha-subunits form a functional channel that can be regulated by intracellular Ca^2+ concentration, membrane voltage, and other mechanisms like phosphorylation states or beta subunits. To test the biological activity of the compounds, we applied two different techniques, a fluorescence based assay using a voltage sensitive dye (Em-Assay) as well as exploiting electrophysiological methods.
CHO cells permanently transfected with cloned hSlo (α-hSlo and β-bSlo), yielding typical BK potassium currents (Zhou et al., Pflügers Arch., 436: 725-734 (1998), were used for the evaluation of compound activity. Activation or inhibition of BK channels in these cells leads to a change of the electrochemical gradient causing a hyperpolarized or depolarised membrane potential, respectively.
To determine changes in the membrane potential of the cells we used the voltage sensitive dye DiBAC(4)3 (Molecular Probes) in a kinetic assay system using a fluorescent plate reader (Manning and Sontheimer, J. Neurosci, Meth., 91: 73-81 (1999). The anionic bis-oxonol DiBAC(4)3 is a voltage sensitive dye which partitions from the extracellular environment into the cell where it reversibly binds to intracellular proteins, a kinetic process depending on the membrane potential of the cell. At depolarised potentials (i.e. at a reduced K^+ efflux due to blocked K^+ channels) the dye accumulates in the cell leading to an increased fluorescence intensity, due to its increased fluorescence if bound to cellular proteins. At hyperpolarized potentials (i.e. at an increased K^+ efflux due to the opening of K^+ channels), the dye partitions out of the cell causing a decreased fluorescence intensity.
hSlo transfected CHO cells where maintained in DMEM supplemented with 10% FCS, 250 μg/ml Geneticin, 100 μg/ml Hygromycin, 1×HT-Supplement, and 1×Non-essential Amino Acids and cultured in a humidified CO2 incubator. After trypsination, cells where plated with a density of 5×10^4 cells per well on a clear 96-well plate and incubated for 24 h. Cells where washed once with PBS, once with PBS containing 20 mM HEPES (adjusted to pH 7.4 with NaOH) and 2 μM DIBAC(4)3 (DPBS-DiBAC solution). 180 μl of the dPBS-DiBAC solution was then added to the cells and the plate incubated for 30-60 min at 37° C. During this time the dye could partition into the cells and reach a certain steady-state distribution, depending on the resting membrane potential. Test and reference compounds were stored as DMSO stock solutions and diluted in dPBS-DiBAC solution to the desired concentration.
Fluorescence intensity (Ex.: 485 nm/Em.: 520 nm) of each well was detected in the plate reader (Fluostar, BMG) every 60 seconds. After recording the baseline fluorescence for 7 minutes, 20 μl test—and reference compounds were added and the fluorescence intensity was detected for additional 15 minutes. Background was subtracted, data values were normalized and expressed as a change in fluorescence intensity against time. The change in fluorescence intensity caused by the test compounds was evaluated, compared to the effect of the reference compound NS004, and the ratio was determined (see Table I).

T1 sequence (Q12791 1-1178 isoform Q12791-5): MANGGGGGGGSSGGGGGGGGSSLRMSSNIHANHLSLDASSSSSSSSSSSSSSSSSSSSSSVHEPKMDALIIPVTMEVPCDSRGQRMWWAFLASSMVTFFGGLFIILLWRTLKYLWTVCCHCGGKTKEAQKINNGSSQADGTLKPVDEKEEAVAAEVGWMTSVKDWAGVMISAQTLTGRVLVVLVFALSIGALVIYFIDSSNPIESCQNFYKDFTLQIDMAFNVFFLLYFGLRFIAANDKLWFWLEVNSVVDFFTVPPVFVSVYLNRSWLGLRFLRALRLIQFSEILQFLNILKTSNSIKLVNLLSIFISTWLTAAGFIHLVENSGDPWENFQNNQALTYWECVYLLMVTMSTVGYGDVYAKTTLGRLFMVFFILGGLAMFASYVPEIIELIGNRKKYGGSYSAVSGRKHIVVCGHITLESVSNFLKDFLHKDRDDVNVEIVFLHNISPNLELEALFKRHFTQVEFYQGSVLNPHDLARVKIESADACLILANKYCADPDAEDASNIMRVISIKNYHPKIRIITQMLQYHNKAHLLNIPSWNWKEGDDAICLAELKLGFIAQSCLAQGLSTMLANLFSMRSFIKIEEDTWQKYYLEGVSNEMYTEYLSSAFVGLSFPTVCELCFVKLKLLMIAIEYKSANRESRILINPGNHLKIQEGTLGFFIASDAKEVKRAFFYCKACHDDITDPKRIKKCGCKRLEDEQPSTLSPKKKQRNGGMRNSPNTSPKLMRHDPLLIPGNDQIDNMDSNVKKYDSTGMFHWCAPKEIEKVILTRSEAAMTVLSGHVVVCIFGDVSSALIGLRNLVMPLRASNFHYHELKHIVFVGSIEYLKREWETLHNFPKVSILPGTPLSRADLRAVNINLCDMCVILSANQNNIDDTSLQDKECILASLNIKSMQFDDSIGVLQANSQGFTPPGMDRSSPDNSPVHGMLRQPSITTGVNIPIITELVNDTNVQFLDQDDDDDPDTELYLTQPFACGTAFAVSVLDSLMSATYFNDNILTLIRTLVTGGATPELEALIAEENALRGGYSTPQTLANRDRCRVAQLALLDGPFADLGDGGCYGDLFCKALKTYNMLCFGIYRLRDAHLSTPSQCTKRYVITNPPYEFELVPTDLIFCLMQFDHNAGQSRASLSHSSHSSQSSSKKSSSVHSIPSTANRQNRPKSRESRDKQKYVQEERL
T1 sequence (Q28067 2-191 partner limits assumed): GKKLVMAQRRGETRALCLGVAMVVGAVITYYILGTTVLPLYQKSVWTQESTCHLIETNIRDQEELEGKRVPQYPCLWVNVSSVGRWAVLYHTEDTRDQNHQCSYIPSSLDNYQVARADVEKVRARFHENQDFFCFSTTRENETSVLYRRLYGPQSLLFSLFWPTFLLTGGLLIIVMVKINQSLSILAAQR

Compound	Em effect: ratio of the compound effect compared to the maximal effect of NS004
Fc1cc(F)cc(CNc2cc(NCc3csc4ccc(Cl)cc34)cc(C(F)(F)F)c2)c1 [Compound 80]	+ (0-1 = +)
FC(F)(F)c1ccccc1CNc1ccc(NCc2ccccc2C(F)(F)F)c(Cl)c1 [Compound 104, 2-chloro-N^1,N^4-bis-(2-trifluoromethylbenzyl)-benzene-1,4-diamine]	+ (0-1 = +)
CC(C)(C)c1ccc(CNc2cccc(NCc3cccc(Cl)c3)c2)cc1 [Compound 42, N-(4tert-butylbenzyl)-N′-(3-chloro-benzyl)-benzene-1,3-diamine]	+ (0-1 = +)
Fc1ccc(CNc2ccc(NCc3ccc(F)cc3F)c(Cl)c2)c(F)c1 [Compound 106]	+ (0-1 = +)
Fc1cc(F)cc(CNc2ccc(NCc3cc(F)cc(F)c3)cc2)c1 [Compound 98, N,N′-bis-(3,5-difluorobenzyl)-benzene-1,4-diamine]	+ (0-1 = +)
Fc1ccc(CNc2cc(NCc3ccc(F)cc3F)cc(C(F)(F)F)c2)c(F)c1 [Compound 69]	+ (0-1 = +)
COc1cccc(CNc2cc(NCc3cccc(Cl)c3)cc(C(F)(F)F)c2)c1 [Compound 82]	+ (0-1 = +)
COc1cccc(CNc2cc(NCc3csc4ccc(Cl)cc34)cc(C(F)(F)F)c2)c1 [Compound 81]	+ (0-1 = +)
CC(C)(C)c1ccc(CNc2cccc(NCc3csc4ccc(Cl)cc34)c2)cc1 [Compound 40]	+ (0-1 = +)
Cc1cc(NCc2ccc(C(F)(F)F)cc2)ccc1NCc1ccc(C(F)(F)F)cc1 [Compound 101, 2-methyl-N1,N4-bis-(4-trifluoromethylbenzyl)-benzene-1,4-diamine]	+ (0-1 = +)
CC(C)(C)c1ccc(CNc2cccc(NCc3ccc(S(C)(=O)=O)cc3)c2)cc1 [Compound 43, N-(4-tert-butylbenzyl)-N′-(4-methanesulfonylbenzyl)-benzene-1,3-diamine]	+ (0-1 = +)
Clc1cccc(CNc2ccc(NCc3ccc(Br)cc3)c(Cl)c2)c1 [Compound 21, N^1-(4-Bromobenzyl)-2-chloro-N^4-(3-chlorobenzyl)-benzene-1,4-diamine]	+ (0-1 = +)
FC(F)(F)c1ccccc1CNc1cccc(NCc2csc3ccc(Cl)cc23)c1 [Compound 62]	+ (0-1 = +)
CS(=O)(=O)c1ccc(CNc2cccc(NCc3cccc(F)c3)c2)cc1 [Compound 45]	+ (0-1 = +)
Fc1cccc(CNc2ccc(NCc3cccc(F)c3)cc2)c1 [Compound 100, N,N′-bis(3-fluorobenzyl)-benzene-1,4-diamine]	+ (0-1 = +)
CS(=O)(=O)c1ccc(CNc2cccc(NCc3cc(F)cc(F)c3)c2)cc1 [Compound 51, N-(3,5-difluorobenzyl)-N′-(4-methanlesulfonylbenzyl)-benzene-1,3-diamine]	+ (0-1 = +)
O=[N+]([O-])c1ccc(CNc2ccc(NCc3cccc(Cl)c3)cc2Cl)cc1 [Compound 24]	+ (0-1 = +)
N#Cc1ccccc1-c1ccc(CNc2cccc(NCc3ccc(-c4ccccc4C#N)cc3)c2)cc1 [Compound 30]	+ (0-1 = +)
CC(C)(C)c1ccc(CNc2cc(NCc3ccc(C(C)(C)C)cc3)cc(C(F)(F)F)c2)cc1 [Compound 77, N,N′-bis-(4-tert-butylbenzyl)-5-trifluoromethylbenzene-1,3-diamine]	+ (0-1 = +)
Fc1ccc(CNc2cccc(NCc3ccc(F)cc3)c2)cc1 [Compound 26, N,N′-bis-(4-fluorobenzyl)-benzene-1,3-diamine]	+ (0-1 = +)

Compound	Em effect: ratio of the compound effect compared to the maximal effect of NS004
FC(F)(F)c1cc(NCc2ccc3ccccc3c2)cc(NCc2ccc3ccccc3c2)c1 [Compound 4]	+ (0-1 = +)
Fc1cccc(CNc2cccc(NCc3csc4ccc(Cl)cc34)c2)c1 [Compound 60]	+ (0-1 = +)
Fc1cccc(F)c1CNc1cccc(NCc2cccc(Cl)c2)c1 [Compound 57, N-(3-chlorobenzyl)-N′-(2,6-difluorobenzyl)-benzene-1,3-diamine]	+ (0-1 = +)
O=[N+]([O-])c1ccc(CNc2cccc(NCc3ccc(F)cc3)c2)o1 [Compound 46]	++ (>1-1.5 = ++)
Fc1ccc(CNc2cccc(NCc3csc4ccc(Cl)cc34)c2)c(Cl)c1 [Compound 64, N-(5-chlorobenzo[b]thiophen-3-ylmethyl)-N′-(2-chloro-4-fluorobenzyl)-benzene-1,3-diamine]	+ (0-1 = +)
COc1cccc(CNc2cccc(NCc3cccc(Cl)c3)c2)c1 [Compound 58, N-(3-chlorobenzyl)-N′-(3-methoxybenzyl)-benzene-1,3-diamine]	+ (0-1 = +)
Clc1cc(NCc2ccc(-c3csnn3)cc2)ccc1NCc1ccc(-c2csnn2)cc1 [Compound 88]	+ (0-1 = +)
CS(=O)(=O)c1ccc(CNc2cccc(NCc3ccc(F)cc3Cl)c2)cc1 [Compound 65, N-(2-chloro-4-fluorobenzyl)-N′-(4-methanesulfonylbenzyl)-benzene-1,3-diamine]	+ (0-1 = +)
CC(C)(C)c1ccc(CNc2cc(NCc3ccc(-c4csnn4)cc3)cc(C(F)(F)F)c2)cc1 [Compound 79, N-(4-tert-butylbenzyl)-N′-(4-[1,2,3]thiadiazol-4-yl-benzyl)-5-tri-fluoromethylbenzene-1,3-diamine]	+ (0-1 = +)
Cc1cc(NCc2cccc(F)c2)ccc1NCc1cccc(F)c1 [Compound 103, N^1,N^4-bis-(3-fluorobenzyl)-2-methylbenzene-1,4-diamnine]	+ (0-1 = +)
O=[N+]([O-])c1ccc(CNc2ccc(NCc3ccc(Br)cc3)cc2Cl)cc1 [Compound 23]	+ (0-1 = +)
Fc1cc(F)cc(CNc2cccc(NCc3cc(F)cc(F)c3)c2)c1 [Compound 27, N,N′-bis-(3,5-difluorobenzyl)-benzene-1,3-diamine]	++ (>1-1.5 = ++)
Fc1ccc(CNc2cccc(NCc3cccc(Cl)c3)c2)c(Cl)c1 [Compound 66]	+ (0-1 = +)
Clc1ccccc1CNc1cccc(NCc2ccccc2Cl)c1 [Compound 32]	+ (0-1 = +)
COc1cccc(CNc2cccc(NCc3ccc(F)cc3Cl)c2)c1 [Compound 67]	+ (0-1 = +)
Fc1cccc(CNc2cccc(NCc3ccc(-c4csnn4)cc3)c2)c1 [Compound 44, N-(3-fluoro-benzyl)-N′-(4-[1,2,3]thiadiazol-4-yl-benzyl)-benzene-1,3-diamine]	+ (0-1 = +)
CC(C)(C)c1ccc(CNc2cc(NCc3ccc(C(F)(F)F)cc3)cc(C(F)(F)F)c2)cc1 [Compound 84]	+ (0-1 = +)
Clc1cccc(CNc2cccc(NCc3ccccc3Cl)c2)c1 [Compound 47]	++ (>1-1.5 = ++)
COc1cccc(CNc2cccc(NCc3cccc(OC)c3)c2)c1 [Compound 33]	+ (0-1 = +)
